Experiment [1] concerns the target T1, CypD (Homo sapiens (Human), UniProt P30405). The experiment can be described thus: CypD binding assay (competition fluorescence polarisation with fluorescine labelled cyclosporin). Here is the method:
The binding capacity of the compounds was measured using a competition Fluorescence-Polarisation based assay with fluorescine labelled cyclosporin. The protocol used was adapted from Hausch et al, Med Chem lett 2010, p 536.
On the technique in general: Polarisation of emitted light reports the rotation of a fluorescent probe.

Experiment [2] addresses T1, CypD. In words: SPR binding. Conditions: steady state KD, read-out: SPR CypD (KDss). In general terms: SPR reads the build-up and loss of mass on a sensor chip optically.
Description: Binding was confirmed on an SPR surface using a protocol adapted from Mori et al., J. Biomolecular Screening, 2009, p.

The structures appear in SMILES notation. Bounds are passed on as bounds.

T1 sequence (P30405 30-207): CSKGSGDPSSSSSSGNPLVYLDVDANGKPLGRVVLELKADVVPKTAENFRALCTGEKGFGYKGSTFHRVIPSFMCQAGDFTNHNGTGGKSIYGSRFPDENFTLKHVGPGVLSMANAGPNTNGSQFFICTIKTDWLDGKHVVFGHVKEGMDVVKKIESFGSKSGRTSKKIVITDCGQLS

Turning to `O=C(CN1C(=O)[C@@H]2[C@H]3CC[C@H](C3)[C@@H]2C1=O)NCc1ccc2c(c1)[C@H]1C[C@@H](N2)[C@H](O)CO1` [Compound 1, 2-exo-(3,5-Dioxo-4-aza-tricyclo[5.2.1.02,6]dec-4-yl)-N-((1R,9R,10S)-10-hydroxy-12-oxa-8-aza-tricyclo[7.3.1.02,7]trideca-2(7),3,5-trien-4-ylmethyl)-acetamide], the IC50 at CypD [1] is below 10 µM. Moreover, the Kd on CypD [2] was below 10 µM.
The molecule `O=C(CN1C(=O)[C@@H]2[C@@H]3CC[C@@H](C3)[C@@H]2C1=O)NCc1ccc2c(c1)[C@H]1C[C@@H](N2)[C@H](O)CO1` [Compound 3] gave a concentration for half-maximal inhibition (IC50) on CypD [1] below 10 µM. On CypD [2], the Kd was below 10 µM.
As for `Nc1ccc(C2(NC(=O)CN3C(=O)[C@@H]4[C@@H]5CC[C@@H](C5)[C@@H]4C3=O)CC2)cc1` [Compound 5, 2-endo-(3,5-Dioxo-4-aza-tricyclo[5.2.1.02,6]dec-4-yl)-N-[1-(4-amino-phenyl)-cyclopropyl]-acetamide], on CypD [1], the IC50 was 10 to 200 µM. Further, the Kd at CypD [2] was in the range of 10 to 200 µM.
Regarding `CCN1Cc2cc(CNC(=O)CN3C(=O)[C@@H]4[C@H]5CC[C@H](C5)[C@@H]4C3=O)ccc2NCCC1=O` [Compound 6], the IC50 on CypD [1] lay in the range of 10 to 200 µM. Moreover, the Kd on CypD [2] is 10 to 200 µM.
`Nc1ccc(CCNC(=O)CN2C(=O)C3CCCCC3C2=O)cc1` (stereo not drawn) [Compound 7, N-[2-(4-Amino-phenyl)-ethyl]-2-(1,3-dioxo-octahydro-isoindol-2-yl)-acetamide] had a 50% inhibitory concentration (IC50) on CypD [1] of 10 to 200 µM. For the same molecule, the Kd on CypD [2] was in the range of 10 to 200 µM.
In the case of `Nc1ccc(CNC(=O)CN2C(=O)C3C4CCC(O4)C3C2=O)cc1` (stereo not drawn) [Compound 8, N-(4-Amino-benzyl)-2-(3,5-dioxo-10-oxa-4-aza-tricyclo[5.2.1.02,6]dec-4-yl)-acetamide], at CypD [1], the IC50 was 10 to 200 µM. Also, the Kd on CypD [2] lay in the range of 10 to 200 µM.
In turn, `O=C(CN1C(=O)[C@@H]2[C@@H]3CC[C@@H](C3)[C@@H]2C1=O)NCCc1ccc2c(c1)CCCN2` [Compound 9, 2-endo-(3,5-Dioxo-4-aza-tricyclo[5.2.1.02,6]dec-4-yl)-N-[2-(1,2,3,4-tetrahydro-quinolin-6-yl)-ethyl]-acetamide] gave an IC50 on CypD [1] of 10 to 200 µM. The Kd at CypD [2] is 10 to 200 µM.
At CypD [1], `Nc1ccc(CCNC(=O)CN2C(=O)[C@@H]3[C@@H]4CC[C@@H](C4)[C@@H]3C2=O)cc1` [Compound 10, N-endo-[2-(4-Amino-phenyl)-ethyl]-2-(3,5-dioxo-4-aza-tricyclo[5.2.1.02,6]dec-4-yl)-acetamide] came in with an IC50 of 10 to 200 µM. Besides, the Kd on CypD [2] is 10 to 200 µM.
The molecule `CCC1Oc2cc(C(C)NC(=O)CN3C(=O)[C@@H]4[C@@H]5CC[C@@H](C5)[C@@H]4C3=O)ccc2NC1=O` (stereo partly drawn) [Compound 11, 2-endo-(3,5-Dioxo-4-aza-tricyclo[5.2.1.02,6]dec-4-yl)-N-[1-(2-ethyl-3-oxo-3,4-dihydro-2H-benzo[1,4]oxazin-7-yl)-ethyl]-acetamide] returned an IC50 at CypD [1] of 10 to 200 µM. Moreover, the Kd on CypD [2] lay in the range of 10 to 200 µM.

What is called IC50 is the concentration at which inhibition is half-maximal. A higher IC50 goes with weaker potency in that assay.

The record behind these values is patent publication US9975902B2, “Compounds for the inhibition of cyclophilins and uses thereof” (Merck Patent GmbH, priority 2016, dated 2018).
